Measurements from publication PMC8482806, “A Novel Blood-Brain Barrier-Permeable Chemotherapeutic Agent for the Treatment of Glioblastoma” (Cureus, 2021).

Assay: [14C]-QBS10072S distribution by quantitative whole-body autoradiography in mice with intracranial LN229 tumors
Format: in vivo, mouse
Conditions: 5 mg/kg IV
Description: Athymic mice with intracranial implanted LN229 cells received a single IV dose of 5 mg/kg and 200 μCi/kg [14C]-QBS10072S into the tail vein using the formulation described above. Animals (one per time point) were sacrificed one, eight, and 24 hours post-dose, and frozen in a hexane/solid carbon dioxide bath for at least 10 minutes. The carcasses were processed as described for quantitative whole-body autoradiography. Briefly, sagittal sections (~ 40 μm thick) were cut using a microtome, mounted, and exposed to a [14C]-sensitive phosphor imaging plate for four days. The images were scanned and quantitated by image densitometry using MCID image analysis software. The concentrations of radioactivity were expressed as the μg equivalents of test article per gram sample (μg equiv/g). The upper and lower limits of quantification were 550 and 0.008 μg equiv/g, respectively (QPS, Newark, DE).

Cc1ccc(N(CCCl)C[14CH2]Cl)cc1C[C@H](N)CC(=O)O.Cl.Cl [[14C]-QBS10072S, [chloroethyl-2-14C]-QBS10072S×2HCl]
Tissue Concentration (Adipose (brown), 1 h): 2.528 µg equiv/g tissue | Tissue Concentration (Adipose (brown), 8 h): 0.440 µg equiv/g tissue | Tissue Concentration (Adipose (brown), 24 h): 0.577 µg equiv/g tissue | Tissue Concentration (Adipose (white), 1 h): 0.409 µg equiv/g tissue | Tissue Concentration (Adipose (white), 8 h): 0.348 µg equiv/g tissue | Tissue Concentration (Adipose (white), 24 h): 0.381 µg equiv/g tissue | Tissue Concentration (Adrenal Gland, 1 h): 2.700 µg equiv/g tissue | Tissue Concentration (Adrenal Gland, 8 h): 0.638 µg equiv/g tissue | Tissue Concentration (Adrenal Gland, 24 h): 0.533 µg equiv/g tissue | Tissue Concentration (Blood (cardiac), 1 h): 2.204 µg equiv/g tissue | Tissue Concentration (Blood (cardiac), 8 h): 0.581 µg equiv/g tissue | Tissue Concentration (Blood (cardiac), 24 h): 0.734 µg equiv/g tissue | Tissue Concentration (Bone, 1 h): 0.350 µg equiv/g tissue | Tissue Concentration (Bone, 8 h): 0.165 µg equiv/g tissue | Tissue Concentration (Bone, 24 h): 0.065 µg equiv/g tissue | Tissue Concentration (Brain (cerebellum), 1 h): 0.395 µg equiv/g tissue | Tissue Concentration (Brain (cerebellum), 8 h): 0.105 µg equiv/g tissue | Tissue Concentration (Brain (cerebellum), 24 h): 0.120 µg equiv/g tissue | Tissue Concentration (Brain (cerebrum), 1 h): 0.469 µg equiv/g tissue | Tissue Concentration (Brain (cerebrum), 8 h): 0.109 µg equiv/g tissue | Tissue Concentration (Brain (cerebrum), 24 h): 0.101 µg equiv/g tissue | Tissue Concentration (Brain (medulla), 1 h): 0.403 µg equiv/g tissue | Tissue Concentration (Brain (medulla), 8 h): 0.081 µg equiv/g tissue | Tissue Concentration (Brain (medulla), 24 h): 0.118 µg equiv/g tissue | Tissue Concentration (Cecum (contents), 1 h): 3.895 µg equiv/g tissue | Tissue Concentration (Cecum (contents), 8 h): 24.266 µg equiv/g tissue | Tissue Concentration (Cecum (contents), 24 h): 9.502 µg equiv/g tissue | Tissue Concentration (Cecum, 1 h): 2.419 µg equiv/g tissue | Tissue Concentration (Cecum, 8 h): 0.924 µg equiv/g tissue | Tissue Concentration (Cecum, 24 h): 0.655 µg equiv/g tissue | Tissue Concentration (Choroid Plexus, 1 h): 0.815 µg equiv/g tissue | Tissue Concentration (Choroid Plexus, 8 h): 0.159 µg equiv/g tissue | Tissue Concentration (Choroid Plexus, 24 h): 0.186 µg equiv/g tissue | Tissue Concentration (Esophagus, 1 h): 1.211 µg equiv/g tissue | Tissue Concentration (Esophagus, 8 h): 0.442 µg equiv/g tissue | Tissue Concentration (Esophagus, 24 h): 0.565 µg equiv/g tissue | Tissue Concentration (Harderian Gland, 1 h): 3.371 µg equiv/g tissue | Tissue Concentration (Harderian Gland, 8 h): 0.468 µg equiv/g tissue | Tissue Concentration (Harderian Gland, 24 h): 0.329 µg equiv/g tissue | Tissue Concentration (Heart, 1 h): 2.165 µg equiv/g tissue | Tissue Concentration (Heart, 8 h): 0.489 µg equiv/g tissue | Tissue Concentration (Heart, 24 h): 0.480 µg equiv/g tissue | Tissue Concentration (Kidney (outer medulla), 1 h): 6.281 µg equiv/g tissue | Tissue Concentration (Kidney (outer medulla), 8 h): 1.372 µg equiv/g tissue | Tissue Concentration (Kidney (outer medulla), 24 h): 1.164 µg equiv/g tissue | Tissue Concentration (Large Intestine, 1 h): 1.437 µg equiv/g tissue | Tissue Concentration (Liver, 1 h): 5.522 µg equiv/g tissue | Tissue Concentration (Liver, 8 h): 0.674 µg equiv/g tissue | Tissue Concentration (Liver, 24 h): 0.598 µg equiv/g tissue | Tissue Concentration (Lung, 1 h): 2.943 µg equiv/g tissue | Tissue Concentration (Lung, 8 h): 0.684 µg equiv/g tissue | Tissue Concentration (Lung, 24 h): 0.620 µg equiv/g tissue | Tissue Concentration (Mammary Gland Region, 1 h): 0.485 µg equiv/g tissue | Tissue Concentration (Mammary Gland Region, 8 h): 0.173 µg equiv/g tissue | Tissue Concentration (Mammary Gland Region, 24 h): 0.365 µg equiv/g tissue | Tissue Concentration (Ovary, 1 h): 2.564 µg equiv/g tissue | Tissue Concentration (Ovary, 8 h): 0.563 µg equiv/g tissue | Tissue Concentration (Ovary, 24 h): 0.585 µg equiv/g tissue | Tissue Concentration (Pancreas, 1 h): 3.270 µg equiv/g tissue | Tissue Concentration (Pancreas, 8 h): 0.546 µg equiv/g tissue | Tissue Concentration (Pancreas, 24 h): 0.442 µg equiv/g tissue | Tissue Concentration (Pituitary Gland, 1 h): 1.689 µg equiv/g tissue | Tissue Concentration (Pituitary Gland, 8 h): 0.468 µg equiv/g tissue | Tissue Concentration (Pituitary Gland, 24 h): 0.128 µg equiv/g tissue | Tissue Concentration (Salivary Gland, 1 h): 2.429 µg equiv/g tissue | Tissue Concentration (Salivary Gland, 8 h): 0.428 µg equiv/g tissue | Tissue Concentration (Salivary Gland, 24 h): 0.368 µg equiv/g tissue | Tissue Concentration (Skeletal Muscle, 1 h): 1.123 µg equiv/g tissue | Tissue Concentration (Skeletal Muscle, 8 h): 0.602 µg equiv/g tissue | Tissue Concentration (Skeletal Muscle, 24 h): 0.627 µg equiv/g tissue | Tissue Concentration (Skin, 1 h): 1.496 µg equiv/g tissue | Tissue Concentration (Skin, 8 h): 0.479 µg equiv/g tissue | Tissue Concentration (Skin, 24 h): 0.425 µg equiv/g tissue | Tissue Concentration (Spinal Cord, 1 h): 0.480 µg equiv/g tissue | Tissue Concentration (Spinal Cord, 8 h): 0.100 µg equiv/g tissue | Tissue Concentration (Spinal Cord, 24 h): 0.120 µg equiv/g tissue | Tissue Concentration (Thyroid, 1 h): 1.802 µg equiv/g tissue | Tissue Concentration (Thyroid, 8 h): 0.374 µg equiv/g tissue | Tissue Concentration (Thyroid, 24 h): 0.653 µg equiv/g tissue | Tissue Concentration (Tumor High, 1 h): 2.836 µg equiv/g tissue | Tissue Concentration (Tumor High, 8 h): 0.575 µg equiv/g tissue | Tissue Concentration (Tumor High, 24 h): 0.479 µg equiv/g tissue | Tissue Concentration (Tumor Low, 1 h): 1.245 µg equiv/g tissue | Tissue Concentration (Tumor Low, 8 h): 0.162 µg equiv/g tissue | Tissue Concentration (Tumor Low, 24 h): 0.240 µg equiv/g tissue | Tissue Concentration (Tumor, 1 h): 1.961 µg equiv/g tissue | Tissue Concentration (Tumor, 8 h): 0.427 µg equiv/g tissue | Tissue Concentration (Tumor, 24 h): 0.275 µg equiv/g tissue | Tissue Concentration (Urinary Bladder (contents), 1 h): 206.798 µg equiv/g tissue | Tissue Concentration (Urinary Bladder (contents), 8 h): 1.716 µg equiv/g tissue | Tissue Concentration (Urinary Bladder (contents), 24 h): 0.811 µg equiv/g tissue | Tissue Concentration (Urinary Bladder, 1 h): 3.914 µg equiv/g tissue | Tissue Concentration (Urinary Bladder, 8 h): 0.821 µg equiv/g tissue | Tissue Concentration (Urinary Bladder, 24 h): 0.485 µg equiv/g tissue | Tissue Concentration (Uterus, 1 h): 1.849 µg equiv/g tissue | Tissue Concentration (Uterus, 8 h): 0.563 µg equiv/g tissue | Tissue Concentration (Uterus, 24 h): 0.511 µg equiv/g tissue | Tissue Concentration (Vagina, 1 h): 1.337 µg equiv/g tissue | Tissue Concentration (Vagina, 8 h): 0.640 µg equiv/g tissue | Tissue Concentration (Vagina, 24 h): 0.629 µg equiv/g tissue
